Peptide text beside a SMILES is read from it.
Tests used:
[1] = target: T1, Bcr/Abl fusion protein (Homo sapiens) (UniProt P00519+P11274); assay: Peptide phosphorylation by Bcr-Abl protein tyrosine kinase at 25 degree for 30 min in a cell-free system; type: protein assay
[2] = target: T1, Bcr/Abl fusion protein (Homo sapiens); assay: Vmax/Km value for peptide phosphorylation by Bcr-Abl protein tyrosine kinase; type: protein assay
[3] = target: Tyrosine-protein kinase ABL1 (Homo sapiens) (UniProt P00519); assay: Peptide phosphorylation by c-Abl protein tyrosine kinase at 25 degree for 30 min in a cell-free system
[4] = target: Tyrosine-protein kinase ABL1 (Homo sapiens) (UniProt P00519); assay: Vmax/Km value for peptide phosphorylation by c-Abl protein tyrosine kinase
[5] = target: T1, Bcr/Abl fusion protein (Homo sapiens); assay: Ratio of peptide phosphorylation by Bcr-Abl and c-Abl protein tyrosine kinases; type: protein assay
[6] = system: CC[C@H](C)[C@H](NC(=O)[C@H](CCC(=O)O)NC(=O)[C@@H](N)CCC(=O)O)C(=O)N[C@@H](Cc1ccc(O)cc1)C(=O)N[C@@H](C)C(=O)N[C@@H](CCC(=O)O)C(=O)N[C@@H](Cc1c[nH]c2ccccc12)C(=O)N[C@@H](Cc1ccccc1)C(=O)O; assay: (§1) Vmax value for peptide phosphorylation by Bcr-Abl protein tyrosine kinase; type: protein assay
[7] = system: CC[C@H](C)[C@H](NC(=O)[C@H](CCC(=O)O)NC(=O)[C@@H](N)CCC(=O)O)C(=O)N[C@@H](Cc1ccc(O)cc1)C(=O)N[C@@H](CC(=O)O)C(=O)N[C@@H](Cc1ccc(O)cc1)C(=O)N[C@@H](C)C(=O)N[C@@H](Cc1ccc(O)cc1)C(=O)O; assay: as §1; type: protein assay
[8] = system: CC[C@H](C)[C@H](NC(=O)[C@H](CCC(=O)O)NC(=O)[C@@H](N)CCC(=O)O)C(=O)N[C@@H](Cc1ccc(O)cc1)C(=O)N[C@@H](CCC(=O)O)C(=O)N[C@@H](CCC(=O)O)C(=O)N1CCC[C@H]1C(=O)N[C@@H](Cc1ccc(O)cc1)C(=O)O; assay: as §1; type: protein assay
[9] = system: CC[C@H](C)[C@H](NC(=O)[C@H](CCC(=O)O)NC(=O)[C@@H](N)CCC(=O)O)C(=O)N[C@@H](Cc1ccc(O)cc1)C(=O)N[C@@H](Cc1ccc(O)cc1)C(=O)N[C@@H](Cc1ccc(O)cc1)C(=O)N[C@H](C(=O)N[C@@H](Cc1c[nH]cn1)C(=O)O)C(C)C; assay: as §1; type: protein assay
[10] = system: CC[C@H](C)[C@H](NC(=O)[C@H](CCC(=O)O)NC(=O)[C@H](CC(=O)O)NC(=O)[C@H](Cc1ccc(O)cc1)NC(=O)[C@@H](NC(=O)[C@H](CCC(=O)O)NC(=O)[C@@H](N)CCC(=O)O)[C@@H](C)CC)C(=O)N[C@@H](Cc1ccc(O)cc1)C(=O)O; assay: as §1; type: protein assay
[11] = system: CC[C@H](C)[C@H](NC(=O)[C@H](CCCN=C(N)N)NC(=O)[C@@H](N)CCC(=O)O)C(=O)N[C@@H](Cc1ccc(O)cc1)C(=O)N[C@@H](C)C(=O)N[C@@H](CCCN=C(N)N)C(=O)N[C@H](C(=O)N[C@@H](CCCCN)C(=O)O)[C@@H](C)O; assay: as §1; type: protein assay
[12] = system: CC[C@H](C)[C@H](NC(=O)[C@H](CCC(=O)O)NC(=O)[C@@H](N)CCC(=O)O)C(=O)N[C@@H](Cc1ccc(O)cc1)C(=O)N[C@@H](C)C(=O)N[C@@H](CCC(=O)O)C(=O)N[C@@H](Cc1c[nH]c2ccccc12)C(=O)N[C@@H](Cc1ccccc1)C(=O)O; assay: (§2) Km value for peptide phosphorylation by Bcr-Abl protein tyrosine kinase; type: protein assay
[13] = system: CC[C@H](C)[C@H](NC(=O)[C@H](CCC(=O)O)NC(=O)[C@@H](N)CCC(=O)O)C(=O)N[C@@H](Cc1ccc(O)cc1)C(=O)N[C@@H](CC(=O)O)C(=O)N[C@@H](Cc1ccc(O)cc1)C(=O)N[C@@H](C)C(=O)N[C@@H](Cc1ccc(O)cc1)C(=O)O; assay: as §2; type: protein assay
[14] = system: CC[C@H](C)[C@H](NC(=O)[C@H](CCC(=O)O)NC(=O)[C@@H](N)CCC(=O)O)C(=O)N[C@@H](Cc1ccc(O)cc1)C(=O)N[C@@H](CCC(=O)O)C(=O)N[C@@H](CCC(=O)O)C(=O)N1CCC[C@H]1C(=O)N[C@@H](Cc1ccc(O)cc1)C(=O)O; assay: as §2; type: protein assay
[15] = system: CC[C@H](C)[C@H](NC(=O)[C@H](CCC(=O)O)NC(=O)[C@@H](N)CCC(=O)O)C(=O)N[C@@H](Cc1ccc(O)cc1)C(=O)N[C@@H](Cc1ccc(O)cc1)C(=O)N[C@@H](Cc1ccc(O)cc1)C(=O)N[C@H](C(=O)N[C@@H](Cc1c[nH]cn1)C(=O)O)C(C)C; assay: as §2; type: protein assay
[16] = system: CC[C@H](C)[C@H](NC(=O)[C@H](CCC(=O)O)NC(=O)[C@H](CC(=O)O)NC(=O)[C@H](Cc1ccc(O)cc1)NC(=O)[C@@H](NC(=O)[C@H](CCC(=O)O)NC(=O)[C@@H](N)CCC(=O)O)[C@@H](C)CC)C(=O)N[C@@H](Cc1ccc(O)cc1)C(=O)O; assay: as §2; type: protein assay
[17] = system: CC[C@H](C)[C@H](NC(=O)[C@H](CCCN=C(N)N)NC(=O)[C@@H](N)CCC(=O)O)C(=O)N[C@@H](Cc1ccc(O)cc1)C(=O)N[C@@H](C)C(=O)N[C@@H](CCCN=C(N)N)C(=O)N[C@H](C(=O)N[C@@H](CCCCN)C(=O)O)[C@@H](C)O; assay: as §2; type: protein assay

Sequence of Bcr/Abl fusion protein (Homo sapiens) (from UniProt P00519+P11274) (P11274 whole entry, looked up, the tested form may be a part): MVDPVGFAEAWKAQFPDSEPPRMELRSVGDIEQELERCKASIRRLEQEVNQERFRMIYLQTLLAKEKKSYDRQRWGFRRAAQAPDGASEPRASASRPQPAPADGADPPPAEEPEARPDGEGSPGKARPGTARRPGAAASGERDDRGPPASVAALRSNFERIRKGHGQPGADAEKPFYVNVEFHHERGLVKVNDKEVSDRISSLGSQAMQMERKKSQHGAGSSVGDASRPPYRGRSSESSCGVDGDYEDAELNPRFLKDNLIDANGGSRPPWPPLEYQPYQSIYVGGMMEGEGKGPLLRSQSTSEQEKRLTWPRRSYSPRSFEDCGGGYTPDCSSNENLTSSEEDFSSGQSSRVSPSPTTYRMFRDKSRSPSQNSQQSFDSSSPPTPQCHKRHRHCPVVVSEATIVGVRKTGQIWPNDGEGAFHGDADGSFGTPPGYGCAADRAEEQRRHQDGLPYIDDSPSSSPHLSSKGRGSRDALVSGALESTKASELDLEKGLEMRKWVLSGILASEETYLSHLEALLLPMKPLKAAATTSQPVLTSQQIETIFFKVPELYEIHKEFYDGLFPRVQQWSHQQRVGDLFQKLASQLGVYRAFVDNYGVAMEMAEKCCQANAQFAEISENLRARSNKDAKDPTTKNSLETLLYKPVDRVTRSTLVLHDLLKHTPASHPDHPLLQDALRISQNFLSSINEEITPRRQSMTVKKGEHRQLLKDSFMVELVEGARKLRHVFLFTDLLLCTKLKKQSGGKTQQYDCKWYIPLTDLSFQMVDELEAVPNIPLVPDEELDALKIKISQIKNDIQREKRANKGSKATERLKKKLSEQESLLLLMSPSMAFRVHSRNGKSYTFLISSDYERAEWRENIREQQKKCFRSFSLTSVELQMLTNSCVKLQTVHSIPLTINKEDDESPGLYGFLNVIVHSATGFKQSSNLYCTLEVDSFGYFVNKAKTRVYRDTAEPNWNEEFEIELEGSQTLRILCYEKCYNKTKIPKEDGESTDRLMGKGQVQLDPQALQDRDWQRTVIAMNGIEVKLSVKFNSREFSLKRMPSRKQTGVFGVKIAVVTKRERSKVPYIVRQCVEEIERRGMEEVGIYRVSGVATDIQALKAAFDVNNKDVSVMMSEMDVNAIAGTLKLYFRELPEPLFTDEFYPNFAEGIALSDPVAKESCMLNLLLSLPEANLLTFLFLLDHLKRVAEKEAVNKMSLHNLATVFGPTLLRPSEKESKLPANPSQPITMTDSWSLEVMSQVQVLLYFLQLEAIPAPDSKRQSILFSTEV
Sequence of Bcr/Abl fusion protein (Homo sapiens) (from UniProt P00519+P11274) (P00519 whole entry, looked up, the tested form may be a part): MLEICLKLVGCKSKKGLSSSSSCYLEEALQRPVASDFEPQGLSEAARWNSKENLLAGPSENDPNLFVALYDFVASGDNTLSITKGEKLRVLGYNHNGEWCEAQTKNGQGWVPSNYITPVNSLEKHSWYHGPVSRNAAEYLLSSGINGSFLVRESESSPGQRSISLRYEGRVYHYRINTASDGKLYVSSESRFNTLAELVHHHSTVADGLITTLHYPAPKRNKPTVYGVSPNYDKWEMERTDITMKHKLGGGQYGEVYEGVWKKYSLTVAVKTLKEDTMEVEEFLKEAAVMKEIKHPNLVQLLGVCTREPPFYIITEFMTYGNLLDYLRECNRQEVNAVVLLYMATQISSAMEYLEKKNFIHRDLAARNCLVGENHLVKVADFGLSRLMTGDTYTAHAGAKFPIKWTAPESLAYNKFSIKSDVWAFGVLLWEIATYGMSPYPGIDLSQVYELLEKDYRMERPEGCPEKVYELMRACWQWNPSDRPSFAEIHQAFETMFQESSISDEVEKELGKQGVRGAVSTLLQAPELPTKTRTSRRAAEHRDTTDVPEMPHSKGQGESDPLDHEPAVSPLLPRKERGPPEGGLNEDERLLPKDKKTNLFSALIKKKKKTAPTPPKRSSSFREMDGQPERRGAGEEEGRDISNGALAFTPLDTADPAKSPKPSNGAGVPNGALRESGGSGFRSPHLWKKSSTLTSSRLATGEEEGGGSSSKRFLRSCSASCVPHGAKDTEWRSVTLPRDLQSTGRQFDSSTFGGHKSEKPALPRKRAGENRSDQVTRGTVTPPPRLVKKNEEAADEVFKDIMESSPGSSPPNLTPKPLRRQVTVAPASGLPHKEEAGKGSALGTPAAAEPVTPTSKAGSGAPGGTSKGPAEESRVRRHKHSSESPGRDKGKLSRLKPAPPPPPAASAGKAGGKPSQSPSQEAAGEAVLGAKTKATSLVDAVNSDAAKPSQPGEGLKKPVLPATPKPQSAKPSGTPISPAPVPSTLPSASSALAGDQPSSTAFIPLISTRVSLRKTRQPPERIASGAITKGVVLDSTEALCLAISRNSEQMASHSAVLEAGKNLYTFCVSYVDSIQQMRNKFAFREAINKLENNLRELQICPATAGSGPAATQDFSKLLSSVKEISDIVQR
Sequence of Tyrosine-protein kinase ABL1 (Homo sapiens) (P00519 whole entry, the tested form may be a part): as the sequence (P00519 whole entry, looked up, the tested form may be a part) above
T1 sequence (P00519 whole entry, looked up, the tested form may be a part): as above
T1 sequence (P11274 whole entry, looked up, the tested form may be a part): as the sequence (P11274 whole entry, looked up, the tested form may be a part) above

Row | Molecule | Activity [1] [pM] | Vmax / Km (10^-9 L min-1) [2] | Activity [3] [pmol] | Vmax / Km (10^-9 L min-1) [4] | Ratio [5] | other results
1 | CC[C@H](C)[C@H](NC(=O)[C@H](CCCN=C(N)N)NC(=O)[C@@H]1CCCN1)C(=O)N[C@@H](Cc1ccc(O)cc1)C(=O)N[C@@H](CC(=O)O)C(=O)N[C@H](C(=O)N1CCC[C@H]1C(=O)N[C@@H](Cc1ccc(O)cc1)C(=O)O)[C@@H](C)CC (H-PRIYDIPY-OH) | 9.5 | – | 1.59 | – | 5.97 | –
2 | CC[C@H](C)[C@H](NC(=O)[C@H](CCCN=C(N)N)NC(=O)[C@@H](N)CCC(=O)O)C(=O)N[C@@H](Cc1ccc(O)cc1)C(=O)N[C@@H](C)C(=O)N[C@@H](CCCN=C(N)N)C(=O)N[C@H](C(=O)N[C@@H](CCCCN)C(=O)O)[C@@H](C)O (H-ERIYARTK-OH) | 22.9 | 42.2 | 3.37 | 2.47 | 6.79 | –
3 | CC[C@H](C)[C@H](NC(=O)[C@H](Cc1c[nH]cn1)NC(=O)[C@@H](N)CCC(=O)O)C(=O)N[C@@H](Cc1ccc(O)cc1)C(=O)N[C@@H](Cc1c[nH]cn1)C(=O)N[C@@H](CCCN=C(N)N)C(=O)N[C@@H](Cc1c[nH]cn1)C(=O)N[C@@H](CCSC)C(=O)O (H-EHIYHRHM-OH) | 2.73 | – | 0.33 | – | 8.27 | –
4 | Bcr/Abl fusion protein (Homo sapiens) (from UniProt P00519+P11274) | – | – | – | – | – | Vmax [6]: 5.27 pmol/min; Vmax [7]: 7.33 pmol/min; Vmax [8]: 10.5 pmol/min; Vmax [9]: 4.64 pmol/min; Vmax [10]: 7.5 pmol/min; Vmax [11]: 5.1 pmol/min; Km [12]: 54 µM; Km [13]: 130 µM; Km [14]: 106 µM; Km [15]: 141 µM; Km [16]: 439 µM; Km [17]: 121 µM
5 | CC[C@H](C)[C@H](NC(=O)[C@H](CCC(=O)O)NC(=O)[C@@H](N)CCC(=O)O)C(=O)N[C@@H](Cc1ccc(O)cc1)C(=O)N[C@@H](CCC(=O)O)C(=O)N[C@@H](CCC(=O)O)C(=O)N1CCC[C@H]1C(=O)N[C@@H](Cc1ccc(O)cc1)C(=O)O (H-EEIYEEPY-OH) | 25.5 | 98.8 | 7.56 | 12.1 | 3.38 | –
6 | CC[C@H](C)[C@H](NC(=O)[C@H](CCCN=C(N)N)NC(=O)[C@@H](N)CC(C)C)C(=O)N[C@@H](Cc1ccc(O)cc1)C(=O)N[C@@H](CCC(=O)O)C(=O)N[C@@H](CCCN=C(N)N)C(=O)N1CCC[C@H]1C(=O)N[C@@H](CCCN=C(N)N)C(=O)O (H-LRIYERPR-OH) | 10.7 | – | 1.23 | – | 8.73 | –
7 | CC[C@H](C)[C@H](NC(=O)[C@H](CCC(=O)O)NC(=O)[C@H](Cc1ccc(O)cc1)NC(=O)[C@@H](NC(=O)[C@H](CC(=O)O)NC(=O)[C@@H](N)CC(=O)O)[C@@H](C)CC)C(=O)N[C@@H](Cc1ccc(O)cc1)C(=O)N[C@@H](Cc1c[nH]c2ccccc12)C(=O)O (H-DDIYEIYW-OH) | 4.35 | – | 0.88 | – | 4.92 | –

The next lines start with results.

Row | Activity [1] [pM] | Vmax / Km (10^-9 L min-1) [2] | Activity [3] [pmol] | Vmax / Km (10^-9 L min-1) [4] | Ratio [5] | Molecule | other results
8 | 22.4 | 56.4 | 6.73 | 7.46 | 3.33 | CC[C@H](C)[C@H](NC(=O)[C@H](CCC(=O)O)NC(=O)[C@@H](N)CCC(=O)O)C(=O)N[C@@H](Cc1ccc(O)cc1)C(=O)N[C@@H](CC(=O)O)C(=O)N[C@@H](Cc1ccc(O)cc1)C(=O)N[C@@H](C)C(=O)N[C@@H](Cc1ccc(O)cc1)C(=O)O (H-EEIYDYAY-OH) | –
9 | 17.7 | 32.9 | 3.37 | 2.38 | 5.24 | CC[C@H](C)[C@H](NC(=O)[C@H](CCC(=O)O)NC(=O)[C@@H](N)CCC(=O)O)C(=O)N[C@@H](Cc1ccc(O)cc1)C(=O)N[C@@H](Cc1ccc(O)cc1)C(=O)N[C@@H](Cc1ccc(O)cc1)C(=O)N[C@H](C(=O)N[C@@H](Cc1c[nH]cn1)C(=O)O)C(C)C (H-EEIYYYVH-OH) | –
10 | 22.6 | 97.6 | 5.69 | 14 | 3.98 | CC[C@H](C)[C@H](NC(=O)[C@H](CCC(=O)O)NC(=O)[C@@H](N)CCC(=O)O)C(=O)N[C@@H](Cc1ccc(O)cc1)C(=O)N[C@@H](C)C(=O)N[C@@H](CCC(=O)O)C(=O)N[C@@H](Cc1c[nH]c2ccccc12)C(=O)N[C@@H](Cc1ccccc1)C(=O)O (H-EEIYAEWF-OH) | –
11 | 14.4 | 17.1 | 4.18 | 3.75 | 3.44 | CC[C@H](C)[C@H](NC(=O)[C@H](CCC(=O)O)NC(=O)[C@H](CC(=O)O)NC(=O)[C@H](Cc1ccc(O)cc1)NC(=O)[C@@H](NC(=O)[C@H](CCC(=O)O)NC(=O)[C@@H](N)CCC(=O)O)[C@@H](C)CC)C(=O)N[C@@H](Cc1ccc(O)cc1)C(=O)O (H-EEIYDEIY-OH) | –
12 | 7.89 | – | 2.71 | – | 2.91 | CC[C@H](C)[C@H](NC(=O)[C@H](CCC(=O)O)NC(=O)[C@@H](N)Cc1ccc(O)cc1)C(=O)N[C@@H](Cc1ccc(O)cc1)C(=O)N[C@@H](CC(=O)O)C(=O)N[C@@H](Cc1ccc(O)cc1)C(=O)N[C@@H](Cc1ccc(O)cc1)C(=O)N[C@H](C(=O)O)C(C)C (H-YEIYDYYV-OH) | –
13 | 4.48 | – | 1.27 | – | 3.52 | CC[C@H](C)[C@H](NC(=O)[C@H](CCC(=O)O)NC(=O)[C@@H](N)CCC(=O)O)C(=O)N[C@@H](Cc1ccc(O)cc1)C(=O)N[C@@H](Cc1ccc(O)cc1)C(=O)N[C@@H](Cc1ccc(O)cc1)C(=O)N[C@@H](CCC(=O)O)C(=O)N[C@@H](CC(C)C)C(=O)O (H-EEIYYYEL-OH) | –
14 | 4.33 | – | 1.89 | – | 2.29 | CC[C@H](C)[C@H](NC(=O)[C@H](Cc1ccc(O)cc1)NC(=O)[C@H](CC(=O)O)NC(=O)[C@H](Cc1ccc(O)cc1)NC(=O)[C@@H](NC(=O)[C@H](CCC(=O)O)NC(=O)[C@@H](N)Cc1ccc(O)cc1)[C@@H](C)CC)C(=O)N[C@@H](CCC(=O)O)C(=O)O (H-YEIYDYIE-OH) | –
